Measured values taken from US10758522B2, “Small molecule analogs of the nemo binding peptide” (THE SCRIPPS RESEARCH INSTITUTE, priority 2015, dated 2020).
Entries after “also recorded” stand apart in the source; their conditions may differ.

Columns and labels:
NF-κB [1] = test: EMSA of NF-κB DNA binding in skeletal muscle of mdx mice after acute treatment; type: in vivo, mouse; details: single ip injection at 10 mg/kg, 1 and 2 hours post-treatment
Experimental: We also tested the compounds for their ability to inhibit NF-κB activity acutely in a murine model of disease. For these experiments, a mouse model of Duchenne muscular dystrophy, which has elevated NF-κB activity in muscle, was treated with Zinc-13 (NBDA-1) and Zinc-5 (NBDA-2) and the level of NF-κB activity determined by gel shift analysis at 1 and 2 hours post-treatment.
(§1) To confirm that the NBD mimetics reduce IKK activity, the extent of phosphorylation of the IKK target, IκBα, in response to 10 ng/ml of TNF-α was determined by Western blot at 0, 5 and 10 min after TNF-α stimulation. […] To determine if the mimetics also reduce NF-κB DNA binding activity, electrophoretic mobility shift assay (EMSA) was conducted both in vivo and in vitro.
Cytoplasmic and nuclear fractions were extracted using the NE-PER nuclear and cytoplasmic extraction reagents (ThermoFisher) according to the manufacturer's instructions. The gel shift assay was performed by following the previously described method (41). In brief, 5 μg of nuclear extract was incubated with gel shift binding buffer and an α-^32P-deoxycytodine triphosphate-radiolabeled NF-κB probe for 20 min at room temperature (MP Biomedicals). The oligonucleotide sequences are as follows: NF-κB template, 5′-[…]-3′; NF-κB annealing, 5′-[…]-3′. The reaction product was separated on a 6% non-denaturing polyacrylamide gel.

p-IκBα = test: Western blot of IκBα phosphorylation after TNF-α; type: cell-based; details: 10 ng/ml TNF-α, 0, 5 and 10 min, 100 μM compound
Experimental: as §1
HEK293 cells grown in a 6-well plate at 1×10^6 cells/well were left untreated or treated with 100 μM of ZINC12909780 or ZINC3369392 for 30 min, followed by 10 ng/ml of TNFα for 0, 5 and 10 min. Cells were then harvested for western blot. Cell lysate was prepared in RIPA buffer (20 mM Tris-HCl (pH 7.5), 150 mM NaCl, 1 mM Na^2EDTA, 1 mM EGTA, 1% NP-40, 1% sodium deoxycholate, 2.5 mM sodium pyrophosphate, 1 mM beta-glycerophosphate, 1 mM Na3VO4, 1 μg/ml leupeptin, 1× protease inhibitor cocktails (sigma) and 1× Halt phosphatase inhibitor cocktail (Thermo)). 30 ug of protein was resolved by MINI-PROTEAN TGX 4-15% SDS-PAGE. Blots were blocked in 5% non-fat milk. Primary antibodies were incubated at 4° C. overnight and secondary antibodies were incubated at room temperature for 1 hour. Anti-p-IκBα (1:1000 CST) and anti-IκBα (1:2000 CST) were used to assess NF-κB activation. Anti-GAPDH (1:5000 CST) was used as a loading control.

NF-κB [2] = test: Firefly luciferase NF-κB reporter assay in TNF-α-stimulated HEK293 cells; type: cell-based; details: for inhibition of TNF-α-induced NF-κB activation (luciferase reporter), in words: 293 NF-κB luciferase reporter cells, 10 ng/ml TNF-α, compound 12909780 at 100 μM
Experimental: This model was used to screen a subset of the drug-like ZINC 8.0 database set (˜900,000 compounds) (Irwin et al., 2005). We were able to identify 161 hits that matched at least 6 features out of eight of the pharmacophore model. […] Two compounds termed NBDA-1 (Zinc-13) and NBDA-2 (Zinc-5), successfully passed these filters (See FIG. 4) and were purchased for biological testing. The compounds were then tested for ability to inhibit TNF-alpha-mediated induction of NF-κB activity in a 293 cells stably modified with a NF-κB luciferase reporter.
The activation of NF-κB was then quantitated by measuring the level of luciferase activity. […] Also, protein extracts were prepared from the same cells and the level of phospho-IkB determined, a marker of IKK activity.
To test if the small molecules identified by the in silico screen inhibit NF-κB activation, a HEK293 cell line stably expressing a luciferase reporter driven by a synthetic, NF-κB-dependent promoter was utilized. To induce NF-κB activation, cells were treated with 10 ng/ml of TNF-α and harvested three hours post-treatment for analysis of luciferase activity. […] To determine if compound 12909780 inhibited NF-κB in a dose dependent manner, concentrations were tested at 0, 6.25, 25, 50 and 100 μM.
HEK293 cells stably transfected with luciferase reporter plasmid driven by NF-κB were seeded in 96-well plate in triplicate and pretreated with DMSO or varying small molecules at indicated concentration for 30 min, followed by the stimulation of 10 ng/ml of TNFα for 3 hr. Cell were washed with PBS once and harvested in passive lysis buffer. Luciferase assay (Promega) was performed using a luminometer according to the manufacturer's instructions.

Ercc1−/Δ mice = test: Systemic treatment of Ercc1−/Δ mice, intervertebral disc proteoglycan; type: in vivo, mouse; details: IP 3× a week, 10 mg/kg for 8 weeks
Experimental: The ability of the compounds to work systemically was also tested. In these experiments, Ercc1^−/Δ mice with accelerated aging (lifespan of 5 months) were treated systemically, 3× a week, by IP injection at a dose of 10 mg/kg for 8 weeks. Since we previously had shown that the NF-κB is a key factor in driving intervertebral disc degenerated, we assessed the effects of treatment on proteoglycan synthesis and content in the discus following treatment.

IL-6 = IL-6 ELISA in LPS-stimulated Raw 264.7 cells; type: cell-based, mouse; details: Raw 264.7, 1 ug/ml LPS, supernatant at 24 hr
Experimental: To confirm the qRT-PCR result, LPS-mediated IL-6 production was analyzed in Raw 264.7 cells by ELISA. […] Moreover, SR11481 appears to work more efficiently at a lower concentration around 25 μM. Taken together, four lead compounds were identified through seven rounds of optimization and modification.
Enzyme-Linked Immunosorbent Assay (ELISA). Raw264.7 cells were grown in a 96-well plate and pretreated with vehicle, IKKi VII (2 uM) and small molecules (at indicated concentration) for 1 hr, followed by the stimulation with 1 ug/ml of LPS. Supernatant was collected 24 hr later for ELISA analysis. IL-6 concentration was measured using a mouse IL-6 ELISA kit (BD) according to the manufacturer's instructions.

[3] = Pharmacokinetics study after ip injection; type: in vivo; details: mice, 10 mg/kg ip, 2 hr
Experimental: To determine the stability of the NBD mimetics in vivo, the pharmacokinetics of the compounds was determined in serum following ip injection.
The pharmacokinetic profiles of the NBD mimetics were determined in male C57BL/6J mice (n=3). The drugs were formulated in 10:10:80 of DMSO:Tween 80:water and were dosed by intraperitoneal injection at a final dose of 10 mg/kg. Blood, brain, muscle, spleen, and liver were collected 2 hr post-treatment and were analyzed by mass spectrometry by following the protocol described in ref. 215 (42).

| Structure (SMILES) | NF-κB DNA binding activity in quadriceps of mdx mice (NF-κB [1]; listed as Zinc-13, 10 mg/kg) | NF-κB DNA binding activity in quadriceps of mdx mice (NF-κB [1]; listed as compound 12909780, 10 mg/kg) | level of phospho-IκBα / phosphorylation of IkB (p-IκBα) | level of phospho-IκBα / phosphorylation of IkB (p-IκBα; listed as Zinc-13) | level of phospho-IκBα / phosphorylation of IkB (p-IκBα; listed as compound 12909780) | dose-dependent inhibition of TNF-α-induced NF-κB activation, in words (NF-κB [2]; 0, 6.25, 25, 50 and 100 μM) | inhibition of TNF-α-induced NF-κB activation (luciferase reporter), in words (NF-κB [2]) | inhibition of TNF-α-induced NF-κB activation (luciferase reporter), in words (NF-κB [2]; listed as Zinc-13) | proteoglycan synthesis and content in the intervertebral disc (Ercc1−/Δ mice) | LPS-mediated mIL-6 production (ELISA) (IL-6) | stability in serum after ip injection ([3]; 10 mg/kg) | stability in serum after ip injection [3] |
| --- | --- | --- | --- | --- | --- | --- | --- | --- | --- | --- | --- | --- |
| Nc1ncccc1C(=O)OCC(=O)Nc1ccc(Cl)cc1F [NBDA-1, 2-((4-chloro-2-fluorophenyl)amino)-2-oxoethyl 2-aminonicotinate] | reduced NF-κB DNA binding activity in the skeletal muscle (quadricep) | inhibited NF-κB DNA binding activity in quadriceps | reduces the level of phospho-IκB | reduced phosphorylation of IkB | mild reduction | only high concentrations (50 and 100 μM) of the compound were able to inhibit TNF-α-induced NF-κB activation significantly | slightly downregulated NF-κB activation | able to reduce activation of NF-κB by TNF-alpha at low micromolar ranges | increased the proteoglycan content |  |  |  |
| O=C(CNc1ccc(Cl)cn1)NCCc1cccc(Br)c1 [SR12343, N-(3-bromophenethyl)-2-((5-chloropyridin-2-yl)amino)acetamide] |  |  |  |  |  |  |  |  |  | suppressed mIL-6 production in a dose-dependent manner | moderate stability; also recorded: less stable compared to SR12460 |  |
| O=C(CNCCc1cc(F)cc(F)c1)Nc1ccc(Cl)cn1 [SR12460, N-(5-chloropyridin-2-yl)-2-((3,5-difluorophenethyl)amino)acetamide] |  |  |  |  |  |  |  |  |  | decreasing by half at 25 μM |  | significant stability 2 hr after injection |
